Experimental data as given in patent publication US20240174633A1, “CRYSTALLINE FORMS OF (4S)-24-CHLORO-4-ETHYL-73-FLUORO-35-METHOXY-32,5-DIOXO-14-(TRIFLUORO-METHYL)-32H-6-AZA-3(4,1)-PYRIDINA-1(1)-[1,2,3]TRIAZOLA-2(1,2),7(1)-DIBENZENAHEPTAPHANE-74-CARBOXAMIDE” (Bayer Aktiengesellschaft, priority 2021, published 2024).

How the values were obtained:
human factor XIa = human factor XIa (Homo sapiens (Human), UniProt P03951); assay: Measurement of FXIa inhibition (fluorogenic peptide substrate); assay type: biochemical; details: substrate Boc-Glu(OBzl)-Ala-Arg-AMC
Sequence of human factor XIa (P03951 388-625): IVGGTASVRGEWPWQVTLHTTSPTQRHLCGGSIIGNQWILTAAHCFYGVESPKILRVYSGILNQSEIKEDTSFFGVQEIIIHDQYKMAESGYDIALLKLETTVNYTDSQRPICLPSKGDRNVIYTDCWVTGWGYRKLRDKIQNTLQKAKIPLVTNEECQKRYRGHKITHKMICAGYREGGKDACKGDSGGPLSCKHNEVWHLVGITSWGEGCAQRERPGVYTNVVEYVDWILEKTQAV
Sequence of human factor XIa (P03951 19-387 partner): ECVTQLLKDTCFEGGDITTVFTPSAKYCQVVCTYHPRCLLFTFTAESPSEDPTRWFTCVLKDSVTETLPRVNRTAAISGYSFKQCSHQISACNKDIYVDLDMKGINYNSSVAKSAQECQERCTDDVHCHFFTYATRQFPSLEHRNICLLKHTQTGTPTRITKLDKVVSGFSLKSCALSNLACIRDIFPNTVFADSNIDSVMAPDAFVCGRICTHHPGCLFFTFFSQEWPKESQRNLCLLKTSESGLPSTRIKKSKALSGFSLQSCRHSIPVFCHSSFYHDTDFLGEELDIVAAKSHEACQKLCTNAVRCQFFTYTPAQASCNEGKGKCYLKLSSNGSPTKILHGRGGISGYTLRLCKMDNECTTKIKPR
Description: (§1) The factor XIa inhibition of the substances according to the invention is determined using a biochemical test system which utilizes the reaction of a peptidic factor XIa substrate to determine the enzymatic activity of human factor XIa. Here, factor XIa cleaves from the peptidic factor XIa substrate the C-terminal aminomethylcoumarin (AMC), the fluorescence of which is measured. The determinations are carried out in microtitre plates.
(§2) Test substances are dissolved in dimethyl sulfoxide and serially diluted in dimethyl sulfoxide (3000 μM to 0.0078 μM; resulting final concentrations in the test: 50 µM to 0.00013 μM). In each case 1 μl of the diluted substance solutions is placed into the wells of white microtitre plates from Greiner (384 wells). […] After 15 min of incubation, the enzyme reaction is started by addition of 20 μl of the factor XIa substrate Boc-Glu(OBzl)-Ala-Arg-AMC dissolved in assay buffer (10 μM in assay buffer) from Bachem, the mixture is incubated at room temperature (22° C.) for 30 min and fluorescence is then measured (excitation: 360 nm, emission: 460 nm). The measured emissions of the test batches with test substance are compared to those of control batches without test substance (only dimethyl sulfoxide instead of test substance in dimethyl sulfoxide), and IC50 values are calculated from the concentration/activity relationships. […]

human plasma kallikrein = human plasma kallikrein (Homo sapiens (Human), UniProt P03952); assay: Determination of the plasma kallikrein activity (fluorogenic peptide substrate); assay type: biochemical; details: substrate H-Pro-Phe-Arg-AMC
Sequence of human plasma kallikrein (P03952 391-638): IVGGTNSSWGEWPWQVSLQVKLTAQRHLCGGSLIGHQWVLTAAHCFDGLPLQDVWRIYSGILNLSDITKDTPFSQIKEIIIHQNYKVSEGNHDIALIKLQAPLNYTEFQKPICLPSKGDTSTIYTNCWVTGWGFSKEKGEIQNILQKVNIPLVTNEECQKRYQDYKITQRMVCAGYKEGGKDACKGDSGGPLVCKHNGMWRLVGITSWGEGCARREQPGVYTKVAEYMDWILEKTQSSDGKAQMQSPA
Sequence of human plasma kallikrein (P03952 20-390 partner): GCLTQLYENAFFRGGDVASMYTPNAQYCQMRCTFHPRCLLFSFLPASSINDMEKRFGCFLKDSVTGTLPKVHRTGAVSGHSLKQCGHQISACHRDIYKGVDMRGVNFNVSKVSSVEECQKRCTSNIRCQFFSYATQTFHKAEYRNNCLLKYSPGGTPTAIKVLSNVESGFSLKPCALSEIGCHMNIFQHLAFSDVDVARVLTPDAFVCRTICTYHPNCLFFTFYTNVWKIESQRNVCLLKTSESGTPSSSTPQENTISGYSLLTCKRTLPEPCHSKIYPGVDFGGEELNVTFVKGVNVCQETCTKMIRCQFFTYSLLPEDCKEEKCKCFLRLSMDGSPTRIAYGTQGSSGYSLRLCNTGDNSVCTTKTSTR
Description: as §1, with “To determine the plasma kallikrein” for “The factor XIa”, “invention,” for “invention is determined using”, “system is used” for “system”, “plasma kallikrein” for “factor XIa”, “plasma kallikrein.” for “factor XIa.”
as §2, with “[…];” for “μM;”, “μM” for “µM”, “the” for “the factor XIa”, “H-Pro-Phe-Arg-AMC” for “Boc-Glu(OBzl)-Ala-Arg-AMC”

`COc1cn([C@@H](C)C(=O)Nc2ccc(C(N)=O)c(F)c2)c(=O)cc1-c1c(-n2cc(C(F)(F)F)nn2)ccc(Cl)c1F` [Example 2.4, 4-({(2S)-2-[4-{3-Chloro-2-fluoro-6-[4-(trifluoromethyl)-1H-1,2,3-triazol-1-yl]phenyl}-5-methoxy-2-oxopyridin-1(2H)-yl]propanoyl}amino)-2-fluorobenzamide] showed an IC50 (human factor XIa) of 1.2 nM and an IC50 (human plasma kallikrein) of 3.4 nM.
